These results are taken from PubChem BioAssay (NCI).

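Interpolation was linear, between the two tested concentrations surrounding the appropriate level; five concentrations were tested over 48 hours in 96-well plates. Definition used: TGI = concentration required for complete inhibition of growth.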

Holding throughout (experiment): DTP human tumour cell line panel, 48 h
Experiment [1] relates to HCT-116 colon.
For experiment [2], the system named is HOP-62 NSCLC.
Experiment [3] deals with COLO 205 colon.
Experiment [4] concerns IGROV1 ovarian.
Experiment [5] deals with OVCAR-3 ovarian.
Experiment [6] has as its system ACHN renal.
The subject of experiment [7] is SF-539 CNS.
The test system of experiment [8] is OVCAR-5 ovarian.
The subject of experiment [9] is BT-549 breast.
The subject of experiment [10] is SK-OV-3 ovarian.
Experiment [11] relates to UACC-62 melanoma.
The subject of experiment [12] is LOX IMVI melanoma.
Experiment [13] deals with T-47D breast.
The test system of experiment [14] is KM12 colon.
For experiment [15], the system named is NCI-H460 lung.
Experiment [16] deals with U251 CNS.
Experiment [17] deals with MALME-3M melanoma.
The subject of experiment [18] is SK-MEL-5 melanoma.
The test system of experiment [19] is CCRF-CEM leukemia.
For experiment [20], the system named is RPMI-8226 leukemia.

The term TGI denotes the concentration giving total growth inhibition. `COP(=O)(C(/C=C/c1ccccc1)OC(C)=O)[C@@H]1CCCC[C@H]1N(CC(C)(C)C)C(C)=O` (some centres not stated): the total growth inhibition concentration (TGI) in experiment [1] was found to be 25.6 µM; in experiment [2], 42.3 µM; in experiment [3] it was 27.1 µM; in [4], 24.1 µM; in experiment [5], 31.9 µM; in experiment [6] it was 30.7 µM. The total growth inhibition concentration (TGI) in [7] was 33.4 µM; in [8] it was 78.9 µM; in experiment [9], 33 µM; in experiment [10], more than 100 µM; in [11], 28 µM; in experiment [12], 30.3 µM. Besides, the TGI in [13] was 32.6 µM; in experiment [14], more than 100 µM; in [15] it was 28.6 µM; in [16], 31.7 µM; in experiment [17], 33.4 µM; in experiment [18] it was 27.3 µM. In [19], this compound registered a total growth inhibition concentration (TGI) of 67.2 µM.

With `NC(=O)C(=CN1CC(=O)NC1=S)C(N)=O`, the concentration for total growth inhibition (TGI) in experiment [1], in experiment [2], in [3], in experiment [4], in [5] and in experiment [6] was more than 100 µM in each case. The TGI in [7], in [8], in experiment [9], in experiment [10], in [11] and in [12] was more than 100 µM throughout. The TGI in experiment [13], in [14], in experiment [15], in experiment [16] and in experiment [18] was more than 100 µM throughout.

Regarding `Cc1cc(C)c2c(c1)C(=O)C1(C2)Cc2c(ccc(C)c2C)C1=O` (configuration not stated), the TGI in experiment [1], in experiment [3], in experiment [4], in experiment [5], in experiment [6] and in experiment [7] was more than 100 µM each time. The TGI in experiment [9], in experiment [20], in experiment [11], in experiment [12], in [13] and in [14] was more than 100 µM in each case. Moreover, the total growth inhibition concentration (TGI) in experiment [15], in experiment [16], in experiment [17], in experiment [18] and in experiment [19] was more than 100 µM throughout.

As to `COc1ccc2c(c1)CC[C@@H]1[C@@H]2CC[C@]2(C)[C@@H](O)/C(=C/c3ccncc3)C[C@@H]12`, the TGI was 30 µM in experiment [1]; 37.3 µM in [2]; 16 µM in experiment [3]; 30 µM in [4]; 39.3 µM in experiment [5]; 67.2 µM in [6]. The total growth inhibition concentration (TGI) in experiment [8] turned out to be 30.7 µM; in experiment [9], 31.6 µM; in experiment [10], 49.4 µM; in [20], 25.1 µM; in experiment [11] it was 29.6 µM; in experiment [13], 28.9 µM. In addition, the concentration for total growth inhibition (TGI) in experiment [14] came to 31.4 µM; in [15], 27.3 µM; in experiment [16], 25.1 µM; in [17], 29.9 µM; in experiment [18], 21.4 µM; in experiment [19], 81 µM.

With `CCOC(=O)CCc1c(C)[nH]c2c(C)c3c([nH]c4ccc(Cl)cc43)c(C)c2c1=O`, the total growth inhibition concentration (TGI) in experiment [1] is 38.7 µM; in experiment [2], 48.4 µM; in experiment [3] it was 89 µM; in experiment [4], 26.2 µM; in experiment [6] it was 28.9 µM; in [7] it was 28.7 µM. Moreover, the total growth inhibition concentration (TGI) in experiment [8] was 19.1 µM; in [9], 40.3 µM; in experiment [12] it was 23.3 µM; in [13], 54.3 µM; in [14], 87 µM; in experiment [15], 6.11 µM. Moreover, the TGI in experiment [16] was 43.4 µM; in experiment [17], 37.1 µM; in [18] it was more than 100 µM; in experiment [19], more than 100 µM.

Regarding `O=C(CCO)OCCCCCC/C=C\CCCCCC/C=C\CCCCCCCCOC(=O)CCO`, the TGI was 29.9 µM in experiment [1]; 36.1 µM in experiment [2]; more than 100 µM in experiment [3]; 31.2 µM in experiment [4]; 41.2 µM in [5]; 64.3 µM in [6]. The total growth inhibition concentration (TGI) in experiment [7] is more than 100 µM; in [8] it was 32.3 µM; in [9], 33.1 µM; in experiment [10], 37.5 µM; in experiment [11] it was 32.9 µM; in experiment [12], 36.6 µM. For the same compound, the TGI in experiment [13] was 35.9 µM; in experiment [14] it was 46 µM; in experiment [15] it was 31.4 µM; in experiment [16] it was 30.3 µM; in [17], 34.7 µM; in [18], more than 100 µM. In experiment [19], the concentration for total growth inhibition (TGI) came to 32.2 µM.

On to `COc1ccccc1OC(=O)/C=C/c1ccccc1`, for which the TGI in [1], in experiment [2], in experiment [3], in [4], in experiment [5] and in [6] was more than 100 µM each time. Besides, the TGI in [7], in experiment [8], in [9], in experiment [10], in experiment [20] and in experiment [11] was more than 100 µM in each case. Further, the total growth inhibition concentration (TGI) in [12], in experiment [13], in [14], in [15], in experiment [16] and in experiment [17] was more than 100 µM each time. Further, in experiment [18], the TGI was more than 100 µM.

In the case of `CNC(=O)OCCN1c2ccccc2Sc2ccccc21`, the TGI in experiment [1] was more than 100 µM; in [2] it was 89.2 µM; in experiment [3], more than 100 µM; in [4] it was more than 100 µM; in [5], more than 100 µM; in [6] it was more than 100 µM. In addition, the total growth inhibition concentration (TGI) in experiment [7], in experiment [8], in experiment [9], in experiment [10], in experiment [11] and in experiment [12] was more than 100 µM in each case. Besides, the concentration for total growth inhibition (TGI) in experiment [13], in experiment [14], in experiment [15], in experiment [16], in experiment [17] and in experiment [18] was more than 100 µM throughout. Besides, the total growth inhibition concentration (TGI) in [19] was more than 100 µM.

Turning to `COC(=O)c1ccc(NCc2cc(O)ccc2O)cc1O`, the total growth inhibition concentration (TGI) in experiment [1] was found to be 36.3 µM; in experiment [2], 24.4 µM; in experiment [3], 33.7 µM; in [4] it was 27.8 µM; in experiment [5] it was 15.2 µM; in experiment [6], 22.2 µM. Moreover, the total growth inhibition concentration (TGI) in experiment [7] is 6.31 µM; in experiment [8], 31 µM; in [9] it was 14.2 µM; in [10] it was more than 55.5 µM; in [20], 4.93 µM; in [11], 34 µM. Further, the concentration for total growth inhibition (TGI) in [12] amounted to 32.1 µM; in experiment [13] it was 37.5 µM; in experiment [14], 15.3 µM; in experiment [15], 31.2 µM; in experiment [16] it was 24.2 µM; in [17] it was 34.7 µM. In addition, the concentration for total growth inhibition (TGI) in experiment [18] came to 26.4 µM.

On to `COc1ccc2[nH]c3c(C)c4cnccc4c(C)c3c2c1`, for which the TGI in experiment [1] was 2.5 µM; in [2], 2.78 µM; in experiment [3], 4.44 µM; in [4], more than 10 µM; in [5] it was 2.43 µM; in experiment [6], more than 10 µM. The TGI in experiment [7] was 3.3 µM; in experiment [8] it was more than 10 µM; in [9] it was more than 10 µM; in experiment [10], more than 10 µM; in experiment [20], 7.11 µM; in [11] it was more than 10 µM. In addition, the TGI in experiment [13] is more than 10 µM; in experiment [14], 2.83 µM; in experiment [15] it was 3.58 µM; in experiment [16], 3.24 µM; in experiment [17], 2.82 µM; in experiment [18] it was more than 10 µM. Further, the TGI in experiment [19] was more than 10 µM.

As for `Cc1cc(=O)[nH]c2c3c(ccc12)OC(C)(C)C=C3`, the concentration for total growth inhibition (TGI) is more than 50.1 µM in experiment [1]; more than 100 µM in experiment [2]; 12.2 µM in experiment [3]; more than 100 µM in experiment [4]; more than 27.7 µM in experiment [5]; more than 100 µM in experiment [6]. For the same compound, the TGI was more than 23.8 µM in [7]; more than 66.1 µM in [8]; more than 100 µM in experiment [9]; more than 82.9 µM in experiment [10]; more than 100 µM in [20]; more than 100 µM in [11]. In addition, the concentration for total growth inhibition (TGI) in [13] is more than 100 µM; in experiment [14], more than 100 µM; in [15], more than 100 µM; in experiment [16] it was more than 47.4 µM; in experiment [17] it was more than 100 µM; in experiment [18], more than 100 µM. Also, the TGI in [19] is more than 100 µM.

Take `CC1OC(OC2C(O[C@@H]3C[C@@H]4CC[C@@H]5[C@H](CC[C@]6(C)[C@@H]7[C@H](C[C@@H]56)O[C@]5(CC[C@@H](C)CO5)[C@H]7C)[C@@]4(C)C[C@H]3O)OC(CO)C(OC3OC(CO)C(O)C(O)C3O)C2O)C(O)C(O)C1O` (some centres not stated): the TGI in experiment [1] was found to be 13.1 µM; in [2], 3.22 µM; in [3], 3.12 µM; in experiment [4], 2.39 µM; in [5], 3.04 µM; in [6] it was 3.18 µM. In addition, the TGI in [7] amounted to 3.16 µM; in experiment [8], 3.12 µM; in experiment [9], 4.44 µM; in [10], 3.17 µM; in experiment [20] it was 11.3 µM; in experiment [11] it was 3.62 µM. The TGI in experiment [13] amounted to 11.2 µM; in experiment [14], 4.49 µM; in [15], 4.14 µM; in experiment [16] it was 3.2 µM; in experiment [17], 2.57 µM; in experiment [18], 2.89 µM. Further, in [19], the concentration for total growth inhibition (TGI) turned out to be 3.72 µM.

As for `Cc1cc(C)c(NS(=O)c2cccc([N+](=O)[O-])c2)c(C)c1` (configuration not stated), the TGI in [2], in experiment [3], in experiment [5], in [6], in experiment [7] and in [8] was more than 100 µM each time. The TGI in experiment [9], in experiment [20], in [13], in experiment [14], in [15] and in experiment [16] was more than 100 µM in each case. In addition, the TGI in experiment [17] and in [19] was more than 100 µM in each case.

With `COC(=O)CNC(=O)Nc1cc(N2C(=O)ON3C2C(C)(C)N(O)C3(C)C)ccc1C` (configuration not stated), the TGI in experiment [1], in experiment [2], in experiment [3], in [4], in [5] and in [6] was more than 100 µM throughout. Further, the TGI in experiment [7], in experiment [8], in experiment [9], in experiment [10], in experiment [11] and in [12] was more than 100 µM each time. Moreover, the total growth inhibition concentration (TGI) in experiment [13], in experiment [14], in experiment [15], in experiment [16], in experiment [17] and in experiment [18] was more than 100 µM throughout. The concentration for total growth inhibition (TGI) in [19] is more than 100 µM.

With `COc1ccc(Nc2nc3ccccc3nc2C(=O)O)cc1`, the TGI in [1], in experiment [2], in experiment [3], in [4], in experiment [5] and in experiment [6] was more than 100 µM in each case. The concentration for total growth inhibition (TGI) in experiment [7], in experiment [8], in experiment [9], in experiment [10], in [11] and in experiment [12] was more than 100 µM in each case. The TGI in experiment [13], in [14], in experiment [15], in [16], in experiment [17] and in experiment [18] was more than 100 µM throughout. The TGI in experiment [19] is more than 100 µM.
